Reference: publication PMC3490914, “The Nonantibiotic Small Molecule Cyslabdan Enhances the Potency of β-Lactams against MRSA by Inhibiting Pentaglycine Interpeptide Bridge Synthesis” (PLoS ONE, 2012)

Legend:
FemB = biological target: T1, FemB (Staphylococcus aureus, UniProt Q2FYR1); assay: pull-down of purified recombinant protein on biotinylcyslabdan-immobilized avidin beads, SDS-PAGE (some background binding to beads alone)
T1 construct: recombinant, C-terminal hexahistidine tag

FemA (SAR1388) [1] = biological target: T2, FemA (SAR1388) (Staphylococcus aureus, UniProt P0A0A5); assay: pull-down of purified recombinant protein on biotinylcyslabdan-immobilized avidin beads, SDS-PAGE; also from MRSA lysate with LC-MS/MS; type: binding
T2 construct: recombinant, C-terminal hexahistidine tag

FemA (SAR1388) [2] = biological target: T2, FemA (SAR1388); assay: in vitro glycyl transfer assay with purified FemA, monoglycyl lipid II and […]-glycine, TLC/phosphoimaging; supported by pull-down with biotinylcyslabdan; type: biochemical

T2 sequence (P0A0A5 whole entry): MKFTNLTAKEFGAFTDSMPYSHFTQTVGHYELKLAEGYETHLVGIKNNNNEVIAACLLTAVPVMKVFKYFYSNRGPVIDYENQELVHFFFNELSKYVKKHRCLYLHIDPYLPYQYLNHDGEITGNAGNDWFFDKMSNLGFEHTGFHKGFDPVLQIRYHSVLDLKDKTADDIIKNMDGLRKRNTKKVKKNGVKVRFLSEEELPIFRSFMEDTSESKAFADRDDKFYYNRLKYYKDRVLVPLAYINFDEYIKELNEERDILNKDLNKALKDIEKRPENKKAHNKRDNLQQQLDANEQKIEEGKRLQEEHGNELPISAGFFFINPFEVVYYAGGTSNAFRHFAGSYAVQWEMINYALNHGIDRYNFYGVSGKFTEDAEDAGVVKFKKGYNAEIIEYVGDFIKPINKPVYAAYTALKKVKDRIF
T1 sequence (Q2FYR1 whole entry): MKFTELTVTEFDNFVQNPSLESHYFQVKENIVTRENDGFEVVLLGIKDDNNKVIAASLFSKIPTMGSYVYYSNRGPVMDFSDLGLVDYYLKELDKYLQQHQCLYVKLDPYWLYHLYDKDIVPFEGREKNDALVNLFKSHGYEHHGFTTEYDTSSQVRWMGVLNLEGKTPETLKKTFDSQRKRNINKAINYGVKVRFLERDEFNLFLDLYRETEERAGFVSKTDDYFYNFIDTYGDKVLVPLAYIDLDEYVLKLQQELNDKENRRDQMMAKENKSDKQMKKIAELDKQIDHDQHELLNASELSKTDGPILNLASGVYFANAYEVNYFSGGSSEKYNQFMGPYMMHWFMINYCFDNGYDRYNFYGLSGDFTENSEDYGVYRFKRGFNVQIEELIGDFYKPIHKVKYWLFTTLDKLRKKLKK

| SMILES | pull-down of purified recombinant protein on biotinylcyslabdan-immobilized avidi (FemB) | pull-down of purified recombinant protein on biotinylcyslabdan-immobilized avidi (FemA (SAR1388) [1]) | IC50 (FemA (SAR1388) [2]) [µM] |
| --- | --- | --- | --- |
| C=C/C(C)=C/CC1C2(C)CCCC(C)(C)C2CC(O)C1(O)CSC[C@H](NC(C)=O)C(=O)NCCOCCOCCNC(=O)CCCCC1SC[C@@H]2NC(=O)N[C@H]12 (stereo partly drawn) [biotinylcyslabdan] | FemB was bound to only avidin beads, while the binding amount of FemB increased in the presence of biotinylcyslabdan | Purified recombinant SAR1388 protein was then added to avidin beads onto which biotinylcyslabdan had been immobilized. | – |
| C=C/C(C)=C/C[C@@H]1[C@@]2(C)CCCC(C)(C)[C@@H]2C[C@H](O)[C@]1(O)CSC[C@H](NC(C)=O)C(=O)O [cyslabdan] | – | – | 530 |
